The record followed here is patent US20230312529A1, “PYRIMIDINE SMALL-MOLECULE COMPOUND AND APPLICATION THEREOF” (WENZHOU MEDICAL UNIVERSITY, priority 2021, published 2023).

Where two headings read alike, the source gives them in different places.

The target in one data set is JAK1 (Homo sapiens (Human), UniProt P23458). In words: Caliper Mobility Shift kinase inhibition test. It counts as biochemical. The following applies: for inhibition at 0.1 µM: 100 nM. The essentials:
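Caliper microfluidic mobility-shift kinase assay in HEPES pH 7.5 buffer with MgCl2, DTT and Brij-35; % inhibition = (max−conversion)/(max−min)×100, max being DMSO control, min low control. IC50 from 10 dilutions, duplicate wells, repeated 3 times.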

The target in a further data set is ABL1 (Homo sapiens (Human), UniProt P00519). Briefly: Caliper Mobility Shift kinase inhibition test. It counts as biochemical. The note with it: 100 nM; read-out: inhibitory rate on ABL1. As for the experimental part:
(§1) The method adopted in the test was Caliper Mobility Shift Assay, which was a detection platform based on the mobility detection technology of microfluidic chip technology. […] Collected data was tested on Caliper to yield that inhibition ratio to kinase activity=(max−conversion)/(max−min)×100. “max” was DMSO control without adding compound, and “min” was low control. When IC50 was determined, each sample was provided with 10 dilutions, each with 2 multiple holes, and repeated for 3 times.

The next data set has as its target PDGFRα (Homo sapiens (Human), UniProt P16234). In words: Caliper Mobility Shift kinase inhibition test. It counts as biochemical. The following applies: for inhibition at 0.1 µM: 100 nM. As for the experimental part:
as §1

The test system of data set [1] is PDGFR signaling pathway related proteins in MG63 cells. In words: Western Blot of PDGFR signaling pathway protein phosphorylation. The note with it: 0.1, 0.2 and 0.4 uM, 48 hours. It counts as cell-based. The procedure: (§2) After pretreating the osteosarcoma cell line with the compound for 48 hours, the culture medium was sucked off, washed with PBS for 3 times, and the total protein was extracted after lysis. A phosphorylation level of the PDGFR signaling pathway related proteins was detected by Western Blot.
(Immunoblotting shows a protein as a band on a membrane.)

Data set [2] concerns PDGFR signaling pathway related proteins in MNNG cells. Described as above. It counts as cell-based. The following applies: 0.1, 0.2 and 0.4 uM, 48 hours. As for the experimental part: as §2
For the next data set, the target named is IKK β (Homo sapiens (Human), UniProt O14920). In words: Caliper Mobility Shift kinase inhibition test. It counts as biochemical. The procedure:
(§3) The method adopted in the test was Caliper Mobility Shift Assay, which was a detection platform based on the mobility detection technology of microfluidic chip technology. Test steps: 1.25× kinase reaction buffer (62.5 mmol/L HEPES, pH 7.5; 0.001875% Brij-35; 12.5 mmol/L MgCl2; 2.5 mM DTT) and kinase reaction stop solution (100 mmol/L HEPES, pH 7.5; 0.015% Brij-35; 0.2% Coating Reagent #3) were configured. […] Collected data was tested on Caliper to yield that inhibition ratio to kinase activity=(max−conversion)/(max−min)×100. “max” was DMSO control without adding compound, and “min” was low control. When IC50 was determined, each sample was provided with 10 dilutions, each with 2 multiple holes, and repeated for 3 times.

Another data set deals with ALK (Homo sapiens (Human), UniProt Q9UM73). In words: Caliper Mobility Shift kinase inhibition test. Format: biochemical. The procedure: as §3
The target of a further data set is FLT3 (Homo sapiens (Human), UniProt P36888). Briefly: Caliper Mobility Shift kinase inhibition test. Format: biochemical. The following applies: 100 nM; read-out: inhibitory rate on FLT3. As for the experimental part:
as §3

The next data set deals with U2OS osteosarcoma cells. In words: MTT assay on osteosarcoma cells. The following applies: Homo sapiens, 48 hours, read-out: Inhibitory activity (IC50) U2OS. It counts as cell-based. As for the experimental part: (§4) Logarithmic osteosarcoma cells were inoculated into a 96-well plate with a cell concentration of 1,500 cell/well for 6 hours by using MTT assay, and each well was filled with 200 μL of cell suspension. […] The samples were cultured in an incubator for 48 hours (37° C., 5% CO2), and 20 v L of MTT (3-(4,5-dimethylthiazole-2)-2,5-diphenyltetrazole) were added into each hole. After continuous culture for 4 hours, the culture solution was discarded by suction, and 200 v L of DMSO were added to each well. […] Calculation method of IC50 value: the IC50 values of the samples were calculated by curve fitting with GraphPad Prism software.
(Tetrazolium assays rely on reduction of a dye to a coloured formazan, in cell work by metabolically active cells.)

Data set [3] relates to SAOS-2 osteosarcoma cells. Briefly: MTT assay on osteosarcoma cells. Format: cell-based. The note with it: Homo sapiens, 48 hours, read-out: Inhibitory activity (IC50) SAOS-2. The procedure: as §4
The subject of another data set is MG-63 osteosarcoma cells. In words: MTT assay on osteosarcoma cells. It counts as cell-based. The note with it: Homo sapiens, 48 hours, read-out: Inhibitory activity (IC50) MG-63. As for the experimental part: as §4
For data set [4], the system named is MNNG/HOS osteosarcoma cells. Briefly: MTT assay on osteosarcoma cells. It counts as cell-based. The following applies: 48 hours, read-out: Inhibitory activity (IC50) MNNG/HOS. As for the experimental part: as §4
The test system of data set [5] is human normal retinal cells ARPE-19. Briefly: MTT assay on human retinal cells. Format: cell-based.

Sequence of JAK1 (P23458 whole entry, species assumed): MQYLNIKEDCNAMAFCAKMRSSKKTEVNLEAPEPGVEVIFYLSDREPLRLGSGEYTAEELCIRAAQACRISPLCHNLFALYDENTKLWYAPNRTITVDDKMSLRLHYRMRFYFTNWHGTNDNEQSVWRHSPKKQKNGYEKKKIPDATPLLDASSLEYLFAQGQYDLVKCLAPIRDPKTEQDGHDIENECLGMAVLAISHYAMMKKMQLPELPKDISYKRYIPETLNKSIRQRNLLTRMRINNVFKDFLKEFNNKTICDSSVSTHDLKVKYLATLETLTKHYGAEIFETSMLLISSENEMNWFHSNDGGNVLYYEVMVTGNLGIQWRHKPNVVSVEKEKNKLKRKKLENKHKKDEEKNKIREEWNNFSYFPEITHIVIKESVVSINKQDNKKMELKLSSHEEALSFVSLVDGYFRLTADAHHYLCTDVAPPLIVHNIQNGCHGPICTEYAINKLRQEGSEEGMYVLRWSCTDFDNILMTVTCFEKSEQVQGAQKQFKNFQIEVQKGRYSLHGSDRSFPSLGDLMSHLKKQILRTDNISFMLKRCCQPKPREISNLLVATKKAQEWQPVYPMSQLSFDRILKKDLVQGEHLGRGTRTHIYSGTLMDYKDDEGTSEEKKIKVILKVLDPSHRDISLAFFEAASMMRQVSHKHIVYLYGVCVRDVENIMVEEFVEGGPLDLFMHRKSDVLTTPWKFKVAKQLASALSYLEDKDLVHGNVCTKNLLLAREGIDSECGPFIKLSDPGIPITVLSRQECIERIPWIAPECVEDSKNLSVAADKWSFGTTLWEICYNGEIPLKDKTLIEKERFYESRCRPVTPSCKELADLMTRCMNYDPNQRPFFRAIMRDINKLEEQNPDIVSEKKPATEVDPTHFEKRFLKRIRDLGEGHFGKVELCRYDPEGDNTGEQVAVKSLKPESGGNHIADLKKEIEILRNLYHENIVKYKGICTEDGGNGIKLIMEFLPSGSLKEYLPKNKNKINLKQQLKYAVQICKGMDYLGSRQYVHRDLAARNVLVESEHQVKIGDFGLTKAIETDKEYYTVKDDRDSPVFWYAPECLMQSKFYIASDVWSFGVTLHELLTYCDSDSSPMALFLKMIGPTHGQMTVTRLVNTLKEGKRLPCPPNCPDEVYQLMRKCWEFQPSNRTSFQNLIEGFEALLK
Sequence of PDGFRα (P16234 24-1089): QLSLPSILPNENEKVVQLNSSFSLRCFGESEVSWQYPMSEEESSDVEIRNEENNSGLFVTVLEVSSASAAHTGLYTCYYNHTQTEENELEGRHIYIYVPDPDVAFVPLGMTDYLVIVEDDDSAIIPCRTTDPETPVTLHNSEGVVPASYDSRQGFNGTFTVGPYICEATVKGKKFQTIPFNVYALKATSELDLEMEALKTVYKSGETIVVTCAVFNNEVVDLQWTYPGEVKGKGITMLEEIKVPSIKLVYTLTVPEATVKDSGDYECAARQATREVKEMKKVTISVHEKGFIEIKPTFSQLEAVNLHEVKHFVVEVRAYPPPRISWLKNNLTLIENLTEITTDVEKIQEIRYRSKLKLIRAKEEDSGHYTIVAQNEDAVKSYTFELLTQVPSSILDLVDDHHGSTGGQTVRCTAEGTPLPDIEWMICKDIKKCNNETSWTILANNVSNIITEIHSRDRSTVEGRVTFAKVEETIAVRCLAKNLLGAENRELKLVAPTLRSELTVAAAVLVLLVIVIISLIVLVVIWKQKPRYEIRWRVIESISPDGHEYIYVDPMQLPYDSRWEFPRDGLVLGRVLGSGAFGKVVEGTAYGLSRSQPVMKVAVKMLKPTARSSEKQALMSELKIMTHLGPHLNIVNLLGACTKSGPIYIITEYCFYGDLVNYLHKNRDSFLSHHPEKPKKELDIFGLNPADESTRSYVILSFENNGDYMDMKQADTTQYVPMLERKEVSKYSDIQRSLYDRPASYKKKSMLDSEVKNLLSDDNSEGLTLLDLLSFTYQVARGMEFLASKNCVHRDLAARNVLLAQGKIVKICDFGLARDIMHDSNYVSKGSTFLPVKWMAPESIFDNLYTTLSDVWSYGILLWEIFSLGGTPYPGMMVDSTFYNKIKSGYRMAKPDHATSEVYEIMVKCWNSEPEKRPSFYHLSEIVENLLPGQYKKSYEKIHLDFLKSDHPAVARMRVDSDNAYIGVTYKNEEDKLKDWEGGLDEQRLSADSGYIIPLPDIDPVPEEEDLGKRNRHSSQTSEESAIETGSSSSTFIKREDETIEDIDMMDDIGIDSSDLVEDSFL
Sequence of IKK β (O14920 whole entry, species assumed): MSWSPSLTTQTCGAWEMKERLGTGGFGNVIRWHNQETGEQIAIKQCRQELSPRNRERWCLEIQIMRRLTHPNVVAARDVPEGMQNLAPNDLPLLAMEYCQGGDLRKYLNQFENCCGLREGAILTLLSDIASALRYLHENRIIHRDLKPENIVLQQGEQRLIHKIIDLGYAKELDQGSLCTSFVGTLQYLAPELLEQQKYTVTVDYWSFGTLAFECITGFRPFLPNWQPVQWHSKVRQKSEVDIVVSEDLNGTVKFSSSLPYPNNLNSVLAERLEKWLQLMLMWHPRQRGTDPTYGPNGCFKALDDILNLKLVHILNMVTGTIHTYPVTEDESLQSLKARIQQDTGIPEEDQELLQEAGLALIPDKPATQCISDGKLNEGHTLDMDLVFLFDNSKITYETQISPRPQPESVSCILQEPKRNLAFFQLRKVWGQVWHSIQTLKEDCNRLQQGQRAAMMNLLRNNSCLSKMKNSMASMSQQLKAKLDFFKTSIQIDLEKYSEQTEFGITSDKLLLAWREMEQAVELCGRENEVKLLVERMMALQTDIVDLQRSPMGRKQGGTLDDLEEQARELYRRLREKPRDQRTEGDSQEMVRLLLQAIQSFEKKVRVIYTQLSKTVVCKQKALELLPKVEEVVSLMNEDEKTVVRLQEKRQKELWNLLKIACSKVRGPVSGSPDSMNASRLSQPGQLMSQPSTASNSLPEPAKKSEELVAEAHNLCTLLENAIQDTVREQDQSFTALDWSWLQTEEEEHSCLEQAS
Sequence of FLT3 (P36888 27-993): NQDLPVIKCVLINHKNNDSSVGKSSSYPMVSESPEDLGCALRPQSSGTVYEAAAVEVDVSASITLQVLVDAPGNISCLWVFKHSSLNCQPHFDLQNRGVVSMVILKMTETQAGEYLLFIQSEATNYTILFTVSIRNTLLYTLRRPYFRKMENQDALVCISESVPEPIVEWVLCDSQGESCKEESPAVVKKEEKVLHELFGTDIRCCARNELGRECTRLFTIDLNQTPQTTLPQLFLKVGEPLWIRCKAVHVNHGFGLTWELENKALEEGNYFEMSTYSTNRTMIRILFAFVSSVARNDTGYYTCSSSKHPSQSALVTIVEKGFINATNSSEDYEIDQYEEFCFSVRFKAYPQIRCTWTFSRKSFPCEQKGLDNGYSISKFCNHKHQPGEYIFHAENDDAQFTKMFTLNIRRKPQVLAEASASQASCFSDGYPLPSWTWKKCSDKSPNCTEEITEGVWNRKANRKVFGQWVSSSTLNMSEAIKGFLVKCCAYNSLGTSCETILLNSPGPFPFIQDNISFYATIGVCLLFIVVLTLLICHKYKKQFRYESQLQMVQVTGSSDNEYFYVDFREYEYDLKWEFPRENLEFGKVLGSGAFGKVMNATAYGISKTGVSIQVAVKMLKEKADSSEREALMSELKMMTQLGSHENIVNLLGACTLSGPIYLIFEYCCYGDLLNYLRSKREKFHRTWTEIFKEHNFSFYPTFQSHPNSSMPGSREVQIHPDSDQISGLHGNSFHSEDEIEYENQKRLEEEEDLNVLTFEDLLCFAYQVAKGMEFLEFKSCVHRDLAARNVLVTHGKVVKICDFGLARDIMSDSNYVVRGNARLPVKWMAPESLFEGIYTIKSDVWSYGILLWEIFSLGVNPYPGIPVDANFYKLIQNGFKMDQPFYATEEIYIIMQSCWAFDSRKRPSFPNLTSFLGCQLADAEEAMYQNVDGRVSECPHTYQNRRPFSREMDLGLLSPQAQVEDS
Sequence of ABL1 (P00519 whole entry): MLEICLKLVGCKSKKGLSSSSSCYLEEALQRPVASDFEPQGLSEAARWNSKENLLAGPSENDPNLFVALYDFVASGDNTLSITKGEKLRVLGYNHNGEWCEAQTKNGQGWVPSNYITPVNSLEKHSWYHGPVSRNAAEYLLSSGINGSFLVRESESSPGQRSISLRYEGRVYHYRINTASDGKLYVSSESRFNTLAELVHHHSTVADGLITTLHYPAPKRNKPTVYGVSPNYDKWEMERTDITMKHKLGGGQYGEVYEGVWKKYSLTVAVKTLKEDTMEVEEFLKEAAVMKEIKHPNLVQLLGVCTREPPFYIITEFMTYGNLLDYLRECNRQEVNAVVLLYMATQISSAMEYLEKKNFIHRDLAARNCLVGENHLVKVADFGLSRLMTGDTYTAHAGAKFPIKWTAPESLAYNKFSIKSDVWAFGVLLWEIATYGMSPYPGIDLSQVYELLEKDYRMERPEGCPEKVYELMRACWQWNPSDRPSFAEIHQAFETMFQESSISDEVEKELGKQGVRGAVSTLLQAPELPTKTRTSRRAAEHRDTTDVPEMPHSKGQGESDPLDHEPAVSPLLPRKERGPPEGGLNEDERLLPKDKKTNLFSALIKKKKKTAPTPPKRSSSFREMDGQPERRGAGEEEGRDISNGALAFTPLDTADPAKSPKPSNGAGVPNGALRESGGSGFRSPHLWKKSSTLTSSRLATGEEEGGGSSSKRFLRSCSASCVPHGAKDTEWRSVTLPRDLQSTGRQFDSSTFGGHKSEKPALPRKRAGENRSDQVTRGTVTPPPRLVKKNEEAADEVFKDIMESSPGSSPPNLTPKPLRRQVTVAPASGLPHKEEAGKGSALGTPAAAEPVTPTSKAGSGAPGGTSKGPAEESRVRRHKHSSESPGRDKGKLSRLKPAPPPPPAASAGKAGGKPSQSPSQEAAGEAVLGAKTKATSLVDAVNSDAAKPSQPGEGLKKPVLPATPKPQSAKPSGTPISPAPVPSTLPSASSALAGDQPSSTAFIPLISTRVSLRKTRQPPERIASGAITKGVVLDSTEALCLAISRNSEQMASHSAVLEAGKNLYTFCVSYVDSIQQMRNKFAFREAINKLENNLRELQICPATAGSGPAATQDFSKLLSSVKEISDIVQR

Take `CCN1CCN(c2ccc(Nc3ncc(C)c(Nc4ccc5cn[nH]c5c4)n3)cc2OC)CC1` [Compound 6i, N^2-(4-(4-ethylpiperazine-1-yl)-3-methoxyphenyl)-N^4-(1H-indazol-6-yl)-5-methylpyrimidine-2,4-diamine]: the IC50 at JAK1 stood at 7.7 nM; on PDGFRα (read-out: IC50 PDGFR-α), 2.7 nM; on IKK β, 694 nM; on ALK it was 5 nM; in the data set with U2OS osteosarcoma cells it was 418 ± 17 nM; in [3] it was 370 ± 2 nM. Besides, the IC50 in the data set on MG-63 osteosarcoma cells stood at 438 ± 1 nM; in data set [4] it was 1030 ± 80 nM; in data set [5] (Homo sapiens, ARPE-19, MTT, read-out: Inhibitory activity (IC50) ARPE-19), 17500 ± 370 nM. Further, the inhibition at 0.1 µM at JAK1 (average, read-out: Average % inhibition JAK1) was 90.5%; at JAK1 (replicate 1, read-out: % inhibition 1 JAK1), 91.7%; at JAK1 (replicate 2, read-out: % inhibition 2 JAK1), 89.3%; at ABL1 it was 95.3%; at PDGFRα (average, read-out: Average % inhibition PDGFR α) it was over 100%; at PDGFRα (replicate 1, read-out: % inhibition 1 PDGFR α), 98.9%. Further, the inhibition at 0.1 µM is 103% at PDGFRα (replicate 2, read-out: % inhibition 2 PDGFR α); 97.5% on PDGFRα (read-out: inhibitory rate on PDGFR-α); 98.9% on FLT3. Besides, the “inhibitory activity on PDGFRα (in words)” value at PDGFRα was “significant inhibitory activities”. Moreover, the “inhibition of phosphorylation of signaling pathway proteins” value in [1] and in [2] was “strong dose-dependent inhibition” throughout. In data set [5] (at low concentration), the “inhibitory activity on ARPE-19 (in words)” value is on record as “almost no inhibitory activity”.
